Results published in US11292781B2, “Pyrimidine tricyclic enone derivatives for inhibition of ROR-gamma and other uses” (REATA PHARMACEUTICALS, INC., priority 2016, dated 2022).

How the values were obtained:
[1] = tested on: Human RAR-related Orphan Receptor Gamma (RORγ); assay: RORγ assay (GAL4-RORγ hybrid luciferase reporter, Indigo Biosciences); type: cell-based; settings: GAL4-RORγ reporter cells, 23 hours
From the text: B. RORγ Assay and Cell Viability
The RORγ assay system was purchased from Indigo Biosciences. This nuclear receptor assay utilizes a human cell line that has been engineered to express a hybrid form of the Human RAR-related Orphan Receptor Gamma (RORγ) at high levels. The N-terminal DNA binding domain (DBD) of the native RORγ receptor was substituted with the yeast GAL4-DBD to generate the GAL4-RORγ hybrid nuclear receptor. The reporter cell line is transfected with a plasmid that encodes the beetle luciferase gene under the control of the GAL4 upstream activating sequence (UAS). GAL4 binds to the UAS and increases transcription of downstream target genes. […] To assess the RORγ inverse-agonist activity of the test compounds, reporter cells were plated in white 96-well plates in triplicate and were treated with DMSO (vehicle) or test compound (concentration ranges of 0.4-200 nM or 2-1000 nM) at 37° C. with 5% CO2 in a humidified atmosphere for 23 hours. After this incubation, luciferin was added to the wells and luciferase activity was determined by measuring the luminescence signal using a BMG Pherastar microplate reader. Viability was determined using the Live Cell Multiplex Assay (Indigo Biosciences). Values from test compound samples were normalized to those from DMSO-treated samples. Data were analyzed using GraphPad Prism version 6.00 for Windows (GraphPad Software, La Jolla Calif. USA). A non-linear regression analysis with log (inhibitor) vs. normalized response using a variable slope was applied to fit the data and determine the IC50 values for inhibition of RORγ and cell viability.

[2] = tested on: Nrf2 transcription factor (GST ARE luciferase reporter in AREc32 cells); assay: AREc32 luciferase reporter assay; type: cell-based, human; settings: EC2×: concentration required to increase GST ARE luciferase reporter activity by 2-fold, 19 hours
How it was run: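 AREc32 cells (MCF-7 carrying luciferase under eight rat GSTA2 ARE copies) treated with compound; luciferase measured by ONE-Glo luminescence. Signal normalised to DMSO wells as fold-induction, fitted by variable-slope log(agonist)-response regression, with EC2× interpolated from the curve.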

[3] = tested on: IL-17A levels in primary human CD4+ T cells differentiated into Th17 cells; assay: IL-17 release from differentiated primary human T-cells (IL-17A HTRF); type: cell-based; settings: primary human CD4+ T cells, Th17 differentiation, 46-hour incubation; read-out: hIL17 IC50
How it was run: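 Cryopreserved primary human CD4+ T cells were activated with CD3/CD28 beads (1:2.5) and driven to Th17 with TGF-β 5, IL-6 20, IL-23 20, IL-10 10 ng/mL in ≤0.1% DMSO for 46 h at 37° C, in triplicate. Supernatant IL-17A was measured by HTRF and viability by CyQuant normalized to DMSO. IC50s came from variable-slope nonlinear regression.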

| IC50 [1] [nM] | IC50 [3] [nM] | Compound | HRF2 ARE 2× [2] [nM] |
| --- | --- | --- | --- |
| > 2000 |  | C[C@H]1C(=O)C(C#N)=C[C@@]2(C)c3nc(-c4ccncc4)nc(O)c3CC[C@H]12 [T17] | 839 |
| > 2000 |  | Cc1cc(-c2nc(-c3ccc(F)cc3)c3c(n2)[C@]2(C)CC(C(N)=O)C(=O)[C@H](C)[C@H]2CC3)ccn1 (stereo partly drawn) [T185] | >2000 |
| > 2000 | > 1000 | C[C@H]1C(=O)C(C#N)=C[C@@]2(C)c3nc(-c4ccnc5ccccc45)nc(NS(C)(=O)=O)c3CC[C@H]12 [T98] | >2000 |
| > 2000 |  | C[C@H]1C(=O)C(C#N)=C[C@@]2(C)c3nc(-c4ccnc(CCC(=O)O)c4)nc(-c4ccccc4F)c3CC[C@H]12 [T150] | >2000 |
| > 2000 |  | COc1nc(CCNC=O)nc2c1CC[C@@H]1[C@@H](C)C(=O)C(C#N)=C[C@@]21C [T11] | 2438 |
|  | 20 | Cc1cc(-c2nc(-c3ccccc3F)c3c(n2)[C@]2(C)C=C(C#N)C(=O)[C@H](C)[C@H]2CC3)c2ccccc2n1 [T69] | 227 |
|  | 31 | C[C@H]1C(=O)C(C#N)=C[C@@]2(C)c3nc(-c4ccnc(C(F)(F)F)c4)nc(-c4ccccc4F)c3CC[C@H]12 [T54] | 483 |
|  | 35 | C[C@H]1C(=O)C(C#N)=C[C@@]2(C)c3nc(-c4ccnc5ccccc45)nc(-c4ccc(F)cc4F)c3CC[C@H]12 [T52] | 272 |
|  | 189 | C[C@H]1C(=O)C(C#N)=C[C@@]2(C)c3nc(-c4ccnc5ccccc45)nc(N(C)C)c3CC[C@H]12 [T99] | 508 |
|  | 58 | CC(=O)OCc1cc(-c2nc(-c3ccccc3F)c3c(n2)[C@]2(C)C=C(C#N)C(=O)[C@H](C)[C@H]2CC3)c2ccccc2n1 [T117] | 232 |
